Reference: US10081634B2, “Heterocyclic compound” (Daewoong Pharmaceutical Co., Ltd., priority 2014, dated 2018)
pIC50: −log10 of the molar value. Read-outs that look alike come from different tables or passages of the source.

Legend:
[1] = target: T1, PRS (prolyl-tRNA synthetase) (Homo sapiens, UniProt P07814); assay: In vitro PRS enzyme activity inhibition experiment ([3H]proline, liquid scintillation); assay type: biochemical
T1 construct: the portion corresponding to PRS in cDNA of EPRS was subcloned; made in house
T1 sequence (P07814 1007-1512 limits assumed): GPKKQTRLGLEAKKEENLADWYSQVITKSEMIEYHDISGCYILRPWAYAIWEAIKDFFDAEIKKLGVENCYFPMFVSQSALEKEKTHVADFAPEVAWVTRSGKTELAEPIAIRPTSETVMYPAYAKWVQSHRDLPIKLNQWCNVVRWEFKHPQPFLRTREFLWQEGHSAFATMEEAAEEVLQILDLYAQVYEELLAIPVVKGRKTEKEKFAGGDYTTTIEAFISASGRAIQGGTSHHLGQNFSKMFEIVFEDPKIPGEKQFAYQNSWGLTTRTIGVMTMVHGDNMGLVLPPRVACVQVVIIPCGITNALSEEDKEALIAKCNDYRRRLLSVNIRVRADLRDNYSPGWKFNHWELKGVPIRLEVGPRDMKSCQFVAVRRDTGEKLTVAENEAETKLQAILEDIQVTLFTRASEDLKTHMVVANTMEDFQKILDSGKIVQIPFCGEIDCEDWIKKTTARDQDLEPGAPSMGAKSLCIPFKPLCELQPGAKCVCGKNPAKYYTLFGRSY
Protocol: In order to confirm the biological activities of the compounds prepared in Examples, % inhibition or IC50 values of PRS enzyme ([…]) activities were calculated.
Specifically, the portion corresponding to PRS in cDNA of EPRS was subcloned, and the obtained high-purity PRS protein was purified and used in the experiment. The compounds (1 μM) prepared in Examples were added into the reaction buffer (20 mM KPO4 (pH 7.4), 6 mM MgAc, 5 mM ATP, […] tRNA, 0.5 mM DTT, 20 mCi[^3H]proline (1 mCi/mL)) and allowed to react at 37° C. for 5 to 10 minutes. The reaction was terminated with 3M paper that was previously dried by addition of 5% TCA. The radioactivity was measured using a liquid scintillation counter.
IC50 values of the respective compounds were calculated and analyzed using Microsoft Excel or Sigma Plot 8.0. In Table 1, the results are divided into A, B and C according to the range of IC50. The case where the derived IC50 is 100 nM or less is represented by “A”, the case where the IC50 is 100 to 500 nM is represented by “B”, and the case where the IC50 is 500 nM or higher is represented by “C”.

NCI-H460 cells = assay: Cancer cell growth inhibition experiment (MTT assay); assay type: cell-based; conditions: Homo sapiens; NCI-H460 lung cancer cell line; 48 hours treatment; MTT cell viability
Protocol: NCI-H460 cells, lung cancer cell lines, were cultured in 5% CO2, 37° C. incubator using a flask for 75 cm^2 tissue culture. 96-well plates were used for the evaluation. These were prepared by differently applying at concentrations in the range of 6,000 to 12,000 cells/well according to the growth rate of the cell lines. The medium containing 5% FBS were dispensed in 200 μL/well and used. The medium were cultured for 24 hours. After confirming the cell status and dispensing form of a 96-well plate under a microscope, they were used for subsequent experiments. The compounds were evaluated at concentrations of 100, 30, 10, 3, 1, 0.3, 0.03, 0.01 μM. After removing the existing medium, the compounds with various concentrations were treated in an amount of 200 μL/well. The compounds-treated plates were further cultured for 48 hours, and the cell viabilities were measured by MTT assay to calculate IC50 values.
% Inhibition and IC50 values of the respective compounds were calculated and analyzed using Sigma Plot 8.0. The case where the derived IC50 is 5 μM or less is represented by “A”, the case where the IC50 is 5 to 30 μM is represented by “B”, and the case where the IC50 is 30 μM or higher is represented by “C”.

[2] = purified PRS protein subcloned from EPRS cDNA, 37° C., 5 to 10 minutes, read-out: PRS IC50

Row | pIC50 [1, 2] | pIC50 (NCI-H460 cells) | Compound | pIC50 [1]
1 | 6.30 to 7.00 | ≤ 4.52 | O=C(C[C@H]1NCCC[C@@H]1O)Cn1cnc2cnc(Cl)cc21 [Example 32, 1-(6-chloro-1H-imidazo[4,5-c]pyridin-1-yl)-3-((2R,3S)-3-hydroxypiperidin-2-yl)propan-2-one] | 
2 | > 7.00 | ≥ 5.30 | O=C(C[C@H]1NCCC[C@@H]1O)Cn1cnc2cc(F)c(Br)cc21 [Example 26, 1-(6-bromo-5-fluoro-1H-benzo[d]imidazol-1-yl)-3-((2R,3S)-3-hydroxypiperidin-2-yl)propan-2-one] | 
3 | < 6.30 | ≤ 4.52 | O=C(C[C@H]1NCCC[C@@H]1O)Cn1nnc2ccc(Cl)cc21 [Example 100, 1-(6-chloro-1H-benzo[d][1,2,3]triazol-1-yl)-3-((2R,3S)-3-hydroxypiperidin-2-yl)propan-2-one] | 
4 | 6.30 to 7.00 | 4.52 to 5.30 | O=C(C[C@H]1NCCC[C@@H]1O)Cn1cnc2c(Cl)c(F)ccc21 [Example 21, 1-(4-chloro-5-fluoro-1H-benzo[d]imidazol-1-yl)-3-((2R,3S)-3-hydroxypiperidin-2-yl)propan-2-one] | 
5 | > 7.00 | ≥ 5.30 | O=C(C[C@H]1NCCC[C@@H]1O)Cn1cnc2c(Cl)c(Br)ccc21 [Example 22, 1-(5-bromo-4-chloro-1H-benzo[d]imidazol-1-yl)-3-((2R,3S)-3-hydroxypiperidin-2-yl)propan-2-one] | 
6 | < 6.30 | ≤ 4.52 | O=C(C[C@H]1NCCC[C@@H]1O)Cn1cnc2ccccc21 [Example 1, 1-(1H-benzo[d]imidazol-1-yl)-3-((2R,3S)-3-hydroxypiperidin-2-yl)propan-2-one] | 
7 | > 7.00 | 4.52 to 5.30 | O=C(C[C@H]1NCCC[C@@H]1O)Cn1cnc2cc(Br)ccc21 [Example 4, 1-(5-bromo-1H-benzo[d]imidazol-1-yl)-3-((2R,3S)-3-hydroxypiperidin-2-yl)propan-2-one] | 
8 | > 7.00 | 4.52 to 5.30 | O=C(C[C@H]1NCCC[C@@H]1O)Cn1cnc2cc(Cl)ccc21 [Example 2, 1-(5-chloro-1H-benzo[d]imidazol-1-yl)-3-((2R,3S)-3-hydroxypiperidin-2-yl)propan-2-one] | 
9 | 6.30 to 7.00 | ≤ 4.52 | O=C(C[C@H]1NCCC[C@@H]1O)Cn1nnc2cc(Cl)ccc21 [Example 99, 1-(5-chloro-1H-benzo[d][1,2,3]triazol-1-yl)-3-((2R,3S)-3-hydroxypiperidin-2-yl)propan-2-one] | 

The next lines start with the compound.

Row | Compound | pIC50 [1, 2] | pIC50 (NCI-H460 cells) | pIC50 [1]
10 | Cc1cc2ncn(CC(=O)C[C@H]3NCCC[C@@H]3O)c2cc1C [Example 9, 1-(5,6-dimethyl-1H-benzo[d]imidazol-1-yl)-3-((2R,3S)-3-hydroxypiperidin-2-yl)propan-2-one] | > 7.00 | ≤ 4.52 | 
11 | CCc1nc2cc(Cl)c(Cl)cc2n1CC(=O)C[C@H]1NCCC[C@@H]1O [Example 48, 1-(5,6-dichloro-2-ethyl-1H-benzo[d]imidazol-1-yl)-3-((2R,3S)-3-hydroxypiperidin-2-yl)propan-2-one] | < 6.30 | ≤ 4.52 | 
12 | O[C@H]1CCCN[C@@H]1CC(F)Cn1cnc2cc(Cl)c(Cl)cc21 (stereo partly drawn) [Example 81, (2R,3S)-2-(3-(5,6-dichloro-1H-benzo[d]imidazol-1-yl)-2-fluoropropyl)piperidin-3-ol] | < 6.30 | ≤ 4.52 | 
13 | NCc1nc2cc(Cl)c(Cl)cc2n1CC(=O)C[C@H]1NCCC[C@@H]1O [Example 52, 1-(2-(aminomethyl)-5,6-dichloro-1H-benzo[d]imidazol-1-yl)-3-((2R,3S)-3-hydroxypiperidin-2-yl)propan-2-one] | < 6.30 | ≤ 4.52 | 
14 | Cc1ccc2c(nc(CO)n2CC(=O)C[C@H]2NCCC[C@@H]2O)c1C [Example 62, 1-(2-(hydroxymethyl)-4,5-dimethyl-1H-benzo[d]imidazol-1-yl)-3-((2R,3S)-3-hydroxypiperidin-2-yl)propan-2-one] | < 6.30 | ≤ 4.52 | 
15 | Cc1c(Br)cnc2c1ncn2CC(=O)C[C@H]1NCCC[C@@H]1O [Example 40, 1-(6-bromo-7-methyl-3H-imidazo[4,5-b]pyridin-3-yl)-3-((2R,3S)-3-hydroxypiperidin-2-yl)propan-2-one] | > 7.00 | ≥ 5.30 | 
16 | O=C(C[C@H]1NCCC[C@@H]1O)Cn1cnc2c(C(F)(F)F)c(F)ccc21 [Example 17, 1-(5-fluoro-4-(trifluoromethyl)-1H-benzo[d]imidazol-1-yl)-3-((2R,3S)-3-hydroxypiperidin-2-yl)propan-2-one] | > 7.00 | 4.52 to 5.30 | 
17 | Cc1c(C#N)cnc2c1ccn2CC(=O)C[C@H]1NCCC[C@@H]1O [Example 95, 1-(3-((2R,3S)-3-hydroxypiperidin-2-yl)-2-oxopropyl)-4-methyl-1H-pyrrolo[2,3-b]pyridin-5-carbonitrile] |  | ≤ 4.52 | < 6.30
18 | Cc1nc2cc(Cl)c(Cl)cc2n1CC(=O)C[C@H]1NCCC[C@@H]1O [Example 46, 1-(5,6-dichloro-2-methyl-1H-benzo[d]imidazol-1-yl)-3-((2R,3S)-3-hydroxypiperidin-2-yl)propan-2-one] | > 7.00 | ≤ 4.52 | 
19 | O=C(C[C@H]1NCCC[C@@H]1O)Cn1c(CO)nc2cc(Br)ccc21 [Example 57, 1-(5-bromo-2-(hydroxymethyl)-1H-benzo[d]imidazol-1-yl)-3-((2R,3S)-3-hydroxypiperidin-2-yl)propan-2-one] | 6.30 to 7.00 | 4.52 to 5.30 | 
20 | CC(O)(C[C@H]1NCCC[C@@H]1O)Cn1cnc2ccccc21 (stereo partly drawn) [Example 80, (2R,3S)-2-(3-(1H-benzo[d]imidazol-1-yl)-2-hydroxy-2-methylpropyl)piperidin-3-ol] | < 6.30 | ≤ 4.52 | 
21 | Cc1cc(Br)cc2c1ncn2CC(=O)C[C@H]1NCCC[C@@H]1O [Example 23, 1-(6-bromo-4-methyl-1H-benzo[d]imidazol-1-yl)-3-((2R,3S)-3-hydroxypiperidin-2-yl)propan-2-one] | > 7.00 | 4.52 to 5.30 | 
22 | Cc1c(Br)cnc2c1ncn2CC(O)C[C@H]1NCCC[C@@H]1O (stereo partly drawn) [Example 78, (2R,3S)-2-(3-(6-bromo-7-methyl-3H-imidazo[4,5-b]pyridin-3-yl)-2-hydroxypropyl)piperidin-3-ol] | > 7.00 | ≤ 4.52 | 
23 | O=C(C[C@H]1NCCC[C@@H]1O)Cn1cnc2ccc(C(F)(F)F)nc21 [Example 36, 1-((2R,3S)-3-hydroxypiperidin-2-yl)-3-(5-(trifluoromethyl)-3H-imidazo[4,5-b]pyridin-3-yl)propan-2-one] | > 7.00 | 4.52 to 5.30 | 
24 | Cc1c(Cl)cnc2c1ncn2CC(=O)C[C@H]1NCCC[C@@H]1O [Example 39, 1-(6-chloro-7-methyl-3H-imidazo[4,5-b]pyridin-3-yl)-3-((2R,3S)-3-hydroxypiperidin-2-yl)propan-2-one] | > 7.00 | ≥ 5.30 | 
25 | O=C(C[C@H]1NCCC[C@@H]1O)Cn1c(CO)nc2cccc(OC(F)(F)F)c21 [Example 61, 1-(2-(hydroxymethyl)-7-(trifluoromethoxy)-1H-benzo[d]imidazol-1-yl)-3-((2R,3S)-3-hydroxypiperidin-2-yl)propan-2-one] | < 6.30 | ≤ 4.52 | 
26 | CN(C)Cc1nc2cc(Cl)c(Cl)cc2n1CC(=O)C[C@H]1NCCC[C@@H]1O [Example 51, 1-(5,6-dichloro-2-((dimethylamino)methyl)-1H-benzo[d]imidazol-1-yl)-3-((2R,3S)-3-hydroxypiperidin-2-yl)propan-2-one] | < 6.30 | ≤ 4.52 | 
27 | O=C(C[C@@H]1CCCN1)Cn1cnc2cc(Cl)c(Cl)cc21 [Example 90, (S)-1-(5,6-dichloro-1H-benzo[d]imidazol-1-yl)-3-(pyrrolidin-2-yl)propan-2-one] | < 6.30 | ≤ 4.52 | 
